# Laboratory results as given in patent US12024503B2, “Benzethers and anilines of pyrazolyl-amino-pyrimidinyl derivatives, and compositions and methods thereof” (LYNK PHARMACEUTICALS CO. LTD., priority 2019, dated 2024).
# Where two headings read alike, the source gives them in different places.
# Legend:
# Assay type in all cases: biochemical
# [1] = target: T1, JAK2V617F (Homo sapiens, UniProt O60674, V617F); test: JAK2V617F microfluidic kinase assay (Caliper EZ Reader II, FAM labeled peptide substrate); details: (2.5 nM), 1 mM ATP
# T1 construct: purchased Carna Biosciences
# Protocol: (§1) Compounds were tested against JAK1, JAK2, JAK2V617F and TYK2.
# (§2) Assay Formats: JAK activity was determined in the reaction buffer 50 mM HEPES, 0.01% Brij35, 10 mMMgCl2, 2 mMDTT by a microfluidic assay. The phosphorylation of a FAM labeled peptide substrate was monitored in the Caliper EZ Reader II (Perkin Elmer). The assay condition for each batch of enzyme (Carna Biosciences) was optimized to obtain 10% conversion rate of peptide substrate.
# (§3) The test compounds were dissolved in DMSO to a stock concentration of 10 mM. 3-fold serially diluted compounds with top concentration of 5 μM were pre-incubated with JAK1, JAK2, JAK2V617F or TYK2 for 10 min at ambient temperature. The final DMSO concentration of assay mixture was 1%. FAM labeled peptide substrate (final concentration […]) and ATP (1 mM concentration) were sequentially added to initiate the kinase reaction at 28° C. The reaction was stopped by adding 50 mMEDTA. The reaction time for JAK1, JAK2, JAK2V617F and TYK2 was 120 min, 20 min, 30 min and 10 min, respectively.
# (§4) The well in the test plate without enzyme was defined as 100% inhibition. And the well without compound but with equivalent DMSO was defined as no inhibition. The percent inhibition was calculated by the following formula. % Inhibition=(Conversionmax−Conversionsample)/(Conversionmax−Conversionmin)*100Conversionmax means the conversion rate in the positive well without addition of compound Conversionmin means the conversion rate in the well without addition of enzyme Conversionsample means the conversion rate of test compounds
# (§5) The dose-response (percent inhibition) curve was plotted and IC50 values were determined by GraphPad software.
# [2] = target: T2, JAK1 (Homo sapiens, UniProt P23458); test: JAK1 microfluidic kinase assay (Caliper EZ Reader II, FAM labeled peptide substrate); details: (5 nM), 1 mM ATP
# T2 construct: purchased Carna Biosciences
# Protocol: as §1, §2, §3, §4, §5
# [3] = target: T3, TYK2 (Homo sapiens, UniProt P29597); test: TYK2 microfluidic kinase assay (Caliper EZ Reader II, FAM labeled peptide substrate); details: (2.5 nM), 1 mM ATP; Table 2; read-out: IC50 TYK2 (2.5 nM) (1 mM ATP)
# T3 construct: purchased Carna Biosciences
# Protocol: as §1, §2, §3, §4, §5
# [4] = target: T4, JAK2 (Homo sapiens, UniProt O60674); test: JAK2 microfluidic kinase assay (Caliper EZ Reader II, FAM labeled peptide substrate); details: (0.25 nM), 1 mM ATP
# T4 construct: purchased Carna Biosciences
# Protocol: as §1, §2, §3, §4, §5
# [5] = Table 2, read-out: IC50 J2V617F (2.5 nM) (1 mM ATP)
# [6] = Table 2, read-out: IC50 JAK1 (5 nM) (1 mM ATP)
# [7] = Table 2, read-out: IC50 JAK2 (0.25 nM) (1 mM ATP)
# [8] = Table 3B, literature compounds, read-out: J2V617F (2.5 nM) (1 mM ATP)
# [9] = Table 3B, literature compounds, read-out: JAK2 (0.25 nM) (1 mM ATP)
# [10] = Table 3B, literature compounds, read-out: JAK1 (5 nM) (1 mM ATP)
# T1 sequence (O60674 whole entry V617F): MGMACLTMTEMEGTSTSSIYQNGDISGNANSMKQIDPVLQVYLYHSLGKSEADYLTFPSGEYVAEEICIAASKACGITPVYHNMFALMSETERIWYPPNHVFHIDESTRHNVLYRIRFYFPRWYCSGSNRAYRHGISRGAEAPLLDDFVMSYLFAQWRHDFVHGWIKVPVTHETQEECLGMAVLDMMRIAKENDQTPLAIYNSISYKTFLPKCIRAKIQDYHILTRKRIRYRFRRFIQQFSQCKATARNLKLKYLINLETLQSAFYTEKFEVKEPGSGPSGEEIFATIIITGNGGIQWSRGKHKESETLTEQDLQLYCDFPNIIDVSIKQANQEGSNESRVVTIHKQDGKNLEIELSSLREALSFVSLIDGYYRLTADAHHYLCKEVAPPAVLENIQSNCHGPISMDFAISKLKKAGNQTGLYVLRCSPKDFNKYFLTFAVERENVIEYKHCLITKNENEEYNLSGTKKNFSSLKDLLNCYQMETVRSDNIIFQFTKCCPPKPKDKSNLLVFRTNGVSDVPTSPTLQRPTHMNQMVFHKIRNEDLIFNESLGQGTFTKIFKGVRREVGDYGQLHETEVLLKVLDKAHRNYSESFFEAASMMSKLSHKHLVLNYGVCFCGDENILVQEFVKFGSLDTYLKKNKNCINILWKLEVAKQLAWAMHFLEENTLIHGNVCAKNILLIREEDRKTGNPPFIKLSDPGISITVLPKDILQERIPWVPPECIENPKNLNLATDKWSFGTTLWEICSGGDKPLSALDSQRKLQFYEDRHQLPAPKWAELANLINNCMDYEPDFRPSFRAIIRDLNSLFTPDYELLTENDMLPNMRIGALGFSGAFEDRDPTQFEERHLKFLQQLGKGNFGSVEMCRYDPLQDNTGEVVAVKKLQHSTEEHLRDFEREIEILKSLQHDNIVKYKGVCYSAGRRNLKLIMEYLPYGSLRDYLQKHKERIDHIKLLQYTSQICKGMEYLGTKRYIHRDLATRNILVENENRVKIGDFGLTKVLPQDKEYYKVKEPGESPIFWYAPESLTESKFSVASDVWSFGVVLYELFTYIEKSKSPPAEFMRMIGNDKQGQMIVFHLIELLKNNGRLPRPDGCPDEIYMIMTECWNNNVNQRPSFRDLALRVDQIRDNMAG
# T4 sequence (O60674 whole entry): as the sequence (O60674 whole entry V617F) above, with F617V counted along it
# T2 sequence (P23458 whole entry): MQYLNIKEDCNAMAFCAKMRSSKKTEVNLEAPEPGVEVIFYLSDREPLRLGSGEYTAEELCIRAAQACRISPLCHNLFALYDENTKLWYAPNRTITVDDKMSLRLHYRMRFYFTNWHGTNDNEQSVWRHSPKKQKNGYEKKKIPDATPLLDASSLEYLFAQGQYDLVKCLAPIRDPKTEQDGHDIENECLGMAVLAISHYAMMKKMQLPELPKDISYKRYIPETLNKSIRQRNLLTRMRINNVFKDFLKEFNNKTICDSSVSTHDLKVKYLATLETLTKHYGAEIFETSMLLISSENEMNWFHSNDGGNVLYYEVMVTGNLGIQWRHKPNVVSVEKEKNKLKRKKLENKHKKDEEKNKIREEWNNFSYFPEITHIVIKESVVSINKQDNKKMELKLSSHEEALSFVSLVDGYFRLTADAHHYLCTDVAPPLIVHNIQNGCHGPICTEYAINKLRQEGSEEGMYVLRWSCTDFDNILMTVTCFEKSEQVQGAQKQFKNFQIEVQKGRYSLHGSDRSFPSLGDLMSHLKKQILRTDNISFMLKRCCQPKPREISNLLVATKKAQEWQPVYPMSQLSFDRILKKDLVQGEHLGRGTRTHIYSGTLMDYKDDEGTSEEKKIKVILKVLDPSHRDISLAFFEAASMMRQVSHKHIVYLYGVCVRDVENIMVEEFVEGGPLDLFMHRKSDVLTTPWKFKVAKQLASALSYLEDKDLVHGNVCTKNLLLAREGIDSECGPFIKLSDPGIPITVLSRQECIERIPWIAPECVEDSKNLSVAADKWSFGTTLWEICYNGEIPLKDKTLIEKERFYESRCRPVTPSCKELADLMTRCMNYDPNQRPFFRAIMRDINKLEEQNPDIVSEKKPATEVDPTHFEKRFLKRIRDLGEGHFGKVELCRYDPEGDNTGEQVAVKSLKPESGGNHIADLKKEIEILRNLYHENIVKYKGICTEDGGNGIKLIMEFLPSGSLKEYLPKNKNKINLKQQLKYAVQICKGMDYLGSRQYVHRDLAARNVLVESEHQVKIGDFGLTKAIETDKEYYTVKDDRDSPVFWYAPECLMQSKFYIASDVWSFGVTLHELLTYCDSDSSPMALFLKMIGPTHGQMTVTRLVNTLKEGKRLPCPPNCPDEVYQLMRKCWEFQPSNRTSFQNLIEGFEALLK
# T3 sequence (P29597 whole entry): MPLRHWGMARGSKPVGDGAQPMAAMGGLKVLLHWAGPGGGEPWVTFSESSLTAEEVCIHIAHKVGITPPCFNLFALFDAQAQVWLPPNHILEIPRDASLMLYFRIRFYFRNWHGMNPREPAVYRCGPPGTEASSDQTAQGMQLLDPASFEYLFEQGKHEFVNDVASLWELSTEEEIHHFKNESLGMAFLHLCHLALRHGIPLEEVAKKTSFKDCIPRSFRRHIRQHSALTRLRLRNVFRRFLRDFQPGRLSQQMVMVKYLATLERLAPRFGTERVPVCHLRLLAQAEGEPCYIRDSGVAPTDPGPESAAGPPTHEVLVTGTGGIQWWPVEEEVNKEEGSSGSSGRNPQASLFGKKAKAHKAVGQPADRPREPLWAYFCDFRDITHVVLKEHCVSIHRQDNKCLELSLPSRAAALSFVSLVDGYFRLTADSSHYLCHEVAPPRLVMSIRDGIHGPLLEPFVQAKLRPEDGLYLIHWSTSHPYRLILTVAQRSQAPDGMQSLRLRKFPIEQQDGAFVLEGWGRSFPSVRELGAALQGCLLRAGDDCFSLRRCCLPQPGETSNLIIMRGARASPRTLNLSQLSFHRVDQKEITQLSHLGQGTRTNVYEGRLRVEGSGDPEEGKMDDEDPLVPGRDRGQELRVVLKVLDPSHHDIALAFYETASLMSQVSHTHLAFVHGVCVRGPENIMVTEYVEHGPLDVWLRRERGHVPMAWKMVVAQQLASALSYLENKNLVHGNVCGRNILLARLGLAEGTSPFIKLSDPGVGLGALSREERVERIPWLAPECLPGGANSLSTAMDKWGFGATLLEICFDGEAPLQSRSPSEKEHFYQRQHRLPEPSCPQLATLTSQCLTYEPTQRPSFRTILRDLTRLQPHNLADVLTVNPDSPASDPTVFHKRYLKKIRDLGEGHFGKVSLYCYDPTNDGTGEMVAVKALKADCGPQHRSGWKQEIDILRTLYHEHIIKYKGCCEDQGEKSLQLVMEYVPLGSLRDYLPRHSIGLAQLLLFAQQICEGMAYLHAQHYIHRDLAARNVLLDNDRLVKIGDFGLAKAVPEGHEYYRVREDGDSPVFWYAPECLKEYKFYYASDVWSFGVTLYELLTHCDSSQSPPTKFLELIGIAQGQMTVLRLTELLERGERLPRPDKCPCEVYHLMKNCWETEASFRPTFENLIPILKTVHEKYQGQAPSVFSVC
"IC50 [1, 5] [µM]","IC50 [2, 6] [µM]",SMILES,further results
0.171,0.0727,"Cc1cnc(Nc2cnn(C3CC3)c2)nc1-c1ccc(OC2CC(C#N)C2)cc1 (centres unmarked) [Example 2, 3-(4-(2-((1-cyclopropyl-1H-pyrazol-4-yl)amino)-5-methylpyrimidin-4-yl)phenoxy)cyclobutanecarbonitrile]",
0.0281,0.00886,"Cc1cnc(Nc2cnn(C3CC3)c2)nc1-c1ccc(OCC2(C#N)CCC2)cc1 [Example 3, 1-((4-(2-((1-cyclopropyl-1H-pyrazol-4-yl)amino)-5-methylpyrimidin-4-yl)phenoxy)methyl)cyclobutane-carbonitrile]",IC50 [3]: 0.0219 µM
< 0.00125,0.00332,"Cc1cnc(Nc2cnn(C3CC3)c2)nc1-c1ccc(OCC2(C#N)CC2)c(F)c1 [Example 5, 1-((4-(2-((1-cyclopropyl-1H-pyrazol-4-yl)amino)-5-methylpyrimidin-4-yl)-2-fluorophenoxy)methyl)cyclopropane-carbonitrile]",IC50 [3]: 0.00326 µM
< 0.00125,0.0062,"Cc1cnc(Nc2cnn(C3CCN(C(=O)C4CC4)CC3)c2)nc1-c1ccc(OCC2(C#N)CC2)c(F)c1 [Example 8, 1-((4-(2-((1-(1-(cyclopropanecarbonyl)piperidin-4-yl)-1H-pyrazol-4-yl)amino)-5-methylpyrimidin-4-yl)-2-fluorophenoxy)methyl)cyclopropane-carbonitrile]",
< 0.00125,0.00706,"Cc1cnc(Nc2cnn(C3CCN(C(=O)C4(C)CC4)CC3)c2)nc1-c1ccc(OCC2(C#N)CC2)c(F)c1 [Example 9, 1-((2-fluoro-4-(5-methyl-2-((1-(1-(1-methylcyclopropanecarbonyl)piperidin-4-yl)-1H-pyrazol-4-yl)amino)pyrimidin-4-yl)phenoxy)methyl)cyclopropane-carbonitrile]",
0.113,0.124,"Cc1cnc(Nc2cnn(C3CC3)c2)nc1-c1cc(F)c(OCC2(C#N)CC2)c(F)c1 [Example 10, 1-((4-(2-((1-cyclopropyl-1H-pyrazol-4-yl)amino)-5-methylpyrimidin-4-yl)-2,6-difluorophenoxy)methyl)cyclopropane carbonitrile]",
< 0.00125,0.00558,"CC(=O)N1CCC(n2cc(Nc3ncc(C)c(-c4ccc(OCC5(C#N)CC5)c(F)c4)n3)cn2)CC1 [Example 13, 1-((4-(2-((1-(1-acetylpiperidin-4-yl)-1H-pyrazol-4-yl)amino)-5-methylpyrimidin-4-yl)-2-fluorophenoxy)methyl)cyclopropane-carbonitrile]",
< 0.00125,0.00571,"Cc1cnc(Nc2cnn(C3CCOCC3)c2)nc1-c1ccc(OCC(C)(C)C#N)cc1 [Example 15, 2,2-dimethyl-3-(4-(5-methyl-2-((1-(tetrahydro-2H-pyran-4-yl)-1H-pyrazol-4-yl)amino)pyrimidin-4-yl)phenoxy)propanenitrile]",
0.00633,0.0392,"Cc1cnc(Nc2cnn(C3CCOCC3)c2)nc1-c1ccc(OC(C)C(C)(C)C#N)cc1 (centres unmarked) [Example 16, 2,2-dimethyl-3-(4-(5-methyl-2-((1-(tetrahydro-2H-pyran-4-yl)-1H-pyrazol-4-yl)amino)pyrimidin-4-yl)phenoxy)butanenitrile]",
0.0568,0.136,"N#CC1(COc2ccc(-c3nc(Nc4cnn(C5CCOCC5)c4)ncc3F)cc2F)CC1 [Example 22, 1-((2-fluoro-4-(5-fluoro-2-((1-(tetrahydro-2H-pyran-4-yl)-1H-pyrazol-4-yl)amino)pyrimidin-4-yl)phenoxy)methyl)cyclopropane-carbonitrile]",
< 0.00125,0.0136,"N#CC1(COc2ccc(-c3nc(Nc4cnn(C5CCOCC5)c4)ncc3Cl)cc2F)CC1 [Example 23, 1-((4-(5-chloro-2-((1-(tetrahydro-2H-pyran-4-yl)-1H-pyrazol-4-yl)amino)pyrimidin-4-yl)-2-fluorophenoxy)methyl)cyclopropane-carbonitrile]",
0.111,0.0842,"N#CC1(COc2ccc(-c3nc(Nc4cnn(C5CC5)c4)ncc3F)cc2F)CC1 [Example 24, 1-((4-(2-((1-cyclopropyl-1H-pyrazol-4-yl)amino)-5-fluoropyrimidin-4-yl)-2-fluorophenoxy)methyl)cyclopropane-carbonitrile]",
0.032,0.032,"CC(C)(C#N)COc1ccc(-c2nc(Nc3cnn(C4CCOCC4)c3)ncc2F)cc1F [Example 25, 3-(2-fluoro-4-(5-fluoro-2-((1-(tetrahydro-2H-pyran-4-yl)-1H-pyrazol-4-yl)amino)pyrimidin-4-yl)phenoxy)-2,2-dimethylpropanenitrile]",
< 0.00125,0.00617,"CC(C)(C#N)COc1ccc(-c2nc(Nc3cnn(C4CCOCC4)c3)ncc2Cl)cc1F [Example 26, 3-(4-(5-chloro-2-((1-(tetrahydro-2H-pyran-4-yl)-1H-pyrazol-4-yl)amino)pyrimidin-4-yl)-2-fluorophenoxy)-2,2-dimethylpropanenitrile]",
0.00149,0.00553,"N#CC1(COc2ccc(-c3nc(Nc4cnn(C5CC5)c4)ncc3Cl)cc2F)CC1 [Example 27, 1-((4-(5-chloro-2-((l-cyclopropyl-1H-pyrazol-4-yl)amino)pyrimidin-4-yl)-2-fluorophenoxy)methyl)cyclopropane carbonitrile]",
< 0.00125,< 0.0025,"CC(=O)N1CCC(n2cc(Nc3ncc(C)c(-c4ccc(OCC(C)(C)C#N)c(F)c4)n3)cn2)CC1 [Example 28, 3-(4-(2-((1-(1-acetylpiperidin-4-yl)-1H-pyrazol-4-yl)amino)-5-methylpyrimidin-4-yl)-2-fluorophenoxy)-2,2-dimethylpropanenitrile]",
,< 0.0025,"Cc1cnc(Nc2cnn(CC#N)c2)nc1-c1ccc(OCC(C)(C)C#N)c(F)c1 [Example 30, 3-(4-(2-((1-(cyanomethyl)-1H-pyrazol-4-yl)amino)-5-methylpyrimidin-4-yl)-2-fluorophenoxy)-2,2-dimethylpropanenitrile]","IC50 [4, 7]: 0.0003 µM"
,0.00794,"Cc1cnc(Nc2cnn(CC#N)c2)nc1-c1ccc(OCC2(C#N)CC2)c(F)c1 [Example 31, 1-((4-(2-((1-(cyanomethyl)-1H-pyrazol-4-yl)amino)-5-methylpyrimidin-4-yl)-2-fluorophenoxy)methyl)cyclopropane-carbonitrile]","IC50 [4, 7]: 0.0032 µM"
,0.136,"Cc1cnc(Nc2cnn(C3CC3)c2)nc1-c1ccc2c(c1)CC(C#N)CO2 (centres unmarked) [Example 34, 6-(2-((1-cyclopropyl-1H-pyrazol-4-yl)amino)-5-methylpyrimidin-4-yl)chroman-3-carbonitrile]","IC50 [4, 7]: 0.0588 µM"
,0.0721,"Cc1cnc(Nc2cnn(C3CC3)c2)nc1-c1ccc(N(C)CC(C)(C)C#N)c(F)c1 [Example 35, 3-((4-(2-((1-cyclopropyl-1H-pyrazol-4-yl)amino)-5-methylpyrimidin-4-yl)-2-fluorophenyl)(methyl)amino)-2,2-dimethylpropanenitrile]","IC50 [4, 7]: 0.00166 µM"
,0.103,"CN(CC(C)(C)C#N)c1ccc(-c2nc(Nc3cnn(C4CC4)c3)ncc2Cl)cc1F [Example 36, 3-((4-(5-chloro-2-((1-cyclopropyl-1H-pyrazol-4-yl)amino)pyrimidin-4-yl)-2-fluorophenyl)(methyl)amino)-2,2-dimethylpropanenitrile]","IC50 [4, 7]: 0.0046 µM"
,,"COc1ccc(-c2nc(Nc3cnn(C)c3)ncc2C)cc1F [Example 45, 4-(3-fluoro-4-methoxyphenyl)-5-methyl-N-(1-methyl-1H-pyrazol-4-yl)pyrimidin-2-amine, reference compound]","IC50 [1, 8]: 0.206 µM; IC50 [4, 9]: 0.121 µM; IC50 [2, 10]: 0.11 µM"
,,"Cc1cnc(Nc2cnn(C)c2)nc1-c1ccc(OC(C)C)c(F)c1 [Example 47, 4-(3-fluoro-4-isopropoxyphenyl)-5-methyl-N-(1-methyl-1H-pyrazol-4-yl)pyrimidin-2-amine, reference compound]","IC50 [1, 8]: 0.0842 µM; IC50 [4, 9]: 0.0613 µM; IC50 [2, 10]: 0.0486 µM"
,,"CCCOc1ccc(-c2nc(Nc3cnn(C)c3)ncc2C)cc1F [Example 48, 4-(3-fluoro-4-propoxyphenyl)-5-methyl-N-(1-methyl-1H-pyrazol-4-yl)pyrimidin-2-amine, reference compound]","IC50 [1, 8]: 0.06 µM; IC50 [4, 9]: 0.0396 µM; IC50 [2, 10]: 0.0257 µM"
